Test results from ChEMBL document CHEMBL5584333, “Evo312: An Evodiamine Analog and Novel PKCβI Inhibitor with Potent Antitumor Activity in Gemcitabine-Resistant Pancreatic Cancer” (J Med Chem, 2024).
Active and inactive are the calls of the source. The calls are words filed in the database; no cut-off is given here.

Columns and labels:
[1] = system: Gemcitabine-resistant PANC-1; experiment: Cell cycle distribution in human Gemcitabine-resistant PANC-1 cells assessed as sub-G1 phase cells at 40 nM incubated for 24 hrs by RNase/PI staining based flow cytometric analysis (reference value: 0.30 %); assay type: functional
[2] = system: Gemcitabine-resistant PANC-1; experiment: Cell cycle distribution in human Gemcitabine-resistant PANC-1 cells assessed as sub-G1 phase cells at 80 nM incubated for 24 hrs by RNase/PI staining based flow cytometric analysis (reference value: 0.30 %); assay type: functional
[3] = system: Gemcitabine-resistant PANC-1; experiment: Induction of apoptosis in human Gemcitabine-resistant PANC-1 cells assessed as upregulation of cleaved caspase-3 level at 160 nM incubated for 48 hrs by Western blot analysis; assay type: functional, cell-based
[4] = system: Gemcitabine-resistant PANC-1; experiment: Effect on Akt expression in human Gemcitabine-resistant PANC-1 cells at 40 to 160 nM by Western blot analysis; assay type: functional, cell-based; conditions: dose 40-160 nM
[5] = Toxicity in male BALB/c nude mouse at 40 mg/kg, ip; assay type: organism-based; conditions: in vivo
[6] = Cytotoxicity against HPDE6c7 cells assessed as inhibition of cell growth incubated for 72 hrs by SRB assay; assay type: toxicity, cell-based; conditions: human
PANC-1 [7] = experiment: Cytotoxicity against human PANC-1 cells assessed as inhibition of cell growth incubated for 72 hrs by SRB assay; assay type: functional, cell-based; conditions: PANC-1, 72 h
[8] = system: Gemcitabine-resistant PANC-1; experiment: Cell cycle distribution in human Gemcitabine-resistant PANC-1 cells assessed as S phase cells at 160 nM incubated for 24 hrs by RNase/PI staining based flow cytometric analysis (reference value: 17.32 %); assay type: functional
[9] = system: Gemcitabine-resistant PANC-1; experiment: Antitumor activity against human Gemcitabine-resistant PANC-1 cells xenografted in male BALB/c nude mouse assessed as reduction in tumor weight at 10 mg/kg, ip administered three times in a week for 20 days relative to control; assay type: functional; parameters: scale not given: the % may be the effect or the level left; conditions: time 20 day
[10] = system: Gemcitabine-resistant PANC-1; experiment: Downregulation of PKCdelta expression in human Gemcitabine-resistant PANC-1 cells at 40 to 160 nM incubated for 24 hrs by Western blotting; assay type: functional, cell-based; conditions: dose 40-160 nM
[11] = system: Gemcitabine-resistant PANC-1; experiment: Downregulation of p-Akt expression in human Gemcitabine-resistant PANC-1 cells at 40 to 160 nM incubated for 24 hrs by Western blotting; assay type: functional, cell-based; conditions: dose 40-160 nM
[12] = system: Gemcitabine-resistant PANC-1; experiment: Cell cycle distribution in human Gemcitabine-resistant PANC-1 cells assessed as G2/M phase cells at 160 nM incubated for 24 hrs by RNase/PI staining based flow cytometric analysis (reference value: 37.53 %); assay type: functional
[13] = system: Gemcitabine-resistant PANC-1; experiment: Induction of apoptosis in human Gemcitabine-resistant PANC-1 cells assessed as upregulation of cleaved caspase-9 level at 160 nM incubated for 48 hrs by Western blot analysis; assay type: functional, cell-based
[14] = system: Gemcitabine-resistant PANC-1; experiment: Induction of cell cycle arrest in human Gemcitabine-resistant PANC-1 cells assessed as upregulation of cyclin B1 protein expression level at 40 to 160 nM incubated for 24 hrs by Western blot analysis; assay type: functional, cell-based; conditions: dose 40-160 nM
[15] = system: Gemcitabine-resistant PANC-1; experiment: Effect on PRAS40 expression in human Gemcitabine-resistant PANC-1 cells at 40 to 160 nM by Western blot analysis; assay type: functional, cell-based; conditions: dose 40-160 nM
[16] = system: Gemcitabine-resistant PANC-1; experiment: Downregulation of PKCbeta1 expression in human Gemcitabine-resistant PANC-1 cells at 40 to 160 nM incubated for 24 hrs by Western blotting; assay type: functional, cell-based; conditions: dose 40-160 nM
[17] = system: Gemcitabine-resistant PANC-1; experiment: Cell cycle distribution in human Gemcitabine-resistant PANC-1 cells assessed as G2/M phase cells at 40 nM incubated for 24 hrs by RNase/PI staining based flow cytometric analysis (reference value: 37.53 %); assay type: functional
[18] = system: Gemcitabine-resistant PANC-1; experiment: Cell cycle distribution in human Gemcitabine-resistant PANC-1 cells assessed as G0-G1 phase cells at 40 nM incubated for 24 hrs by RNase/PI staining based flow cytometric analysis (reference value: 45.21 %); assay type: functional
[19] = molecular target: Serine/threonine-protein kinase AKT (Homo sapiens) (UniProt P31751+Q9Y243+P31749); experiment: Inhibition of Akt phosphorylation in human Gemcitabine-resistant PANC-1 cells at 160 nM incubated for 24 hrs by phospho-kinase array analysis; assay type: cell-based
Serine/threonine-protein kinase AKT (Homo sapiens), sequence (P31749 whole entry, looked up): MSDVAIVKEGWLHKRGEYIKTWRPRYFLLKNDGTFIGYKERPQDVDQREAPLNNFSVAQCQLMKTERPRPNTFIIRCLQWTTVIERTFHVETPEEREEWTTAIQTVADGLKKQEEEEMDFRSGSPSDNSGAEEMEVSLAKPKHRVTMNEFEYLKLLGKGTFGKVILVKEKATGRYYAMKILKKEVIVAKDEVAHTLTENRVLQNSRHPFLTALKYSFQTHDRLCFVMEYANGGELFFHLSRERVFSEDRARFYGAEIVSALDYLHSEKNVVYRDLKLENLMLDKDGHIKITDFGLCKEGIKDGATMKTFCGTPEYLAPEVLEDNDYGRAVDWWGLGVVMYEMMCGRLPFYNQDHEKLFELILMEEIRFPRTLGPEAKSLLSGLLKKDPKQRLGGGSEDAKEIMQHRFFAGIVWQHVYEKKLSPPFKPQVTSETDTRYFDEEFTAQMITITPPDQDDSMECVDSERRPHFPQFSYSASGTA
Serine/threonine-protein kinase AKT (Homo sapiens), sequence (P31751 whole entry, looked up): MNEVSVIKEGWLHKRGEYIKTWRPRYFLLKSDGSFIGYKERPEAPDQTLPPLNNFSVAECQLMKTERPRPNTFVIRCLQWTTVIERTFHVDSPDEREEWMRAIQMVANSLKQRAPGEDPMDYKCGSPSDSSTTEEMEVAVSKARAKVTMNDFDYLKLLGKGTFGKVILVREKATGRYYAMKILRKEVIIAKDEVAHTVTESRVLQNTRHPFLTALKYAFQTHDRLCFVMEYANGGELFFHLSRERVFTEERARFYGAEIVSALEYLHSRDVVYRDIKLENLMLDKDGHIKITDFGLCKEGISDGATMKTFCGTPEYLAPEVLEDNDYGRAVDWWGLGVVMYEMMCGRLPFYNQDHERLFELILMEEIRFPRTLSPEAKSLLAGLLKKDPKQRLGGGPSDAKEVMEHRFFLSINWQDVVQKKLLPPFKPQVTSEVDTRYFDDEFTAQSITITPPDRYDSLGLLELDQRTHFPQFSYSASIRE
Serine/threonine-protein kinase AKT (Homo sapiens), sequence (Q9Y243 whole entry, looked up): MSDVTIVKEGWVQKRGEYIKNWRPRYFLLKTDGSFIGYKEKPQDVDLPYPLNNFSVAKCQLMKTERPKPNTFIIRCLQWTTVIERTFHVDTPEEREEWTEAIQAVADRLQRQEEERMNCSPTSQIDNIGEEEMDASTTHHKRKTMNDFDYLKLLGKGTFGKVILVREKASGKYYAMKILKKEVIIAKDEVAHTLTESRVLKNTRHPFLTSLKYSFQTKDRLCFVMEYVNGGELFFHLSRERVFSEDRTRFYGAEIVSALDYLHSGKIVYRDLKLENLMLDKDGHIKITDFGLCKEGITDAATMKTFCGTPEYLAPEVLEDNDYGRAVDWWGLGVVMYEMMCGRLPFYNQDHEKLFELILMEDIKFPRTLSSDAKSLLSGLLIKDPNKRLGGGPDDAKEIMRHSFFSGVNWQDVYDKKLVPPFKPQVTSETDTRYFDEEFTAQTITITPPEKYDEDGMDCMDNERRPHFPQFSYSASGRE

[20] = system: Gemcitabine-resistant PANC-1; experiment: Downregulation of p-p70S6K expression in human Gemcitabine-resistant PANC-1 cells at 40 to 160 nM incubated for 24 hrs by Western blotting; assay type: functional, cell-based; conditions: dose 40-160 nM
[21] = Toxicity in male BALB/c nude mouse xenografted with human Gemcitabine-resistant PANC-1 cells at 10 mg/kg, ip administered three times in a week for 20 days; assay type: organism-based; conditions: in vivo, 480 h, time 20 day
PANC-1 [22] = experiment: Antiproliferative activity against human PANC-1 cells transfected with PKCbeta1 siRNA assessed as reduction in cell viability at 0.016 to 10 uM incubated for 72 hrs by MTT assay; assay type: functional, cell-based; conditions: dose 0.016-10 µM
[23] = system: Gemcitabine-resistant PANC-1; experiment: Downregulation of PKCepsilon expression in human Gemcitabine-resistant PANC-1 cells at 40 to 160 nM incubated for 24 hrs by Western blotting; assay type: functional, cell-based; conditions: dose 40-160 nM
[24] = molecular target: Protein kinase C beta type (Homo sapiens, UniProt P05771); experiment: Inhibition of PKCbeta1 in human Gemcitabine-resistant PANC-1 cells incubated for 24 hrs; assay type: cell-based; conditions: dose 40-200 nM
Protein kinase C beta type, sequence (P05771 2-671 limits assumed): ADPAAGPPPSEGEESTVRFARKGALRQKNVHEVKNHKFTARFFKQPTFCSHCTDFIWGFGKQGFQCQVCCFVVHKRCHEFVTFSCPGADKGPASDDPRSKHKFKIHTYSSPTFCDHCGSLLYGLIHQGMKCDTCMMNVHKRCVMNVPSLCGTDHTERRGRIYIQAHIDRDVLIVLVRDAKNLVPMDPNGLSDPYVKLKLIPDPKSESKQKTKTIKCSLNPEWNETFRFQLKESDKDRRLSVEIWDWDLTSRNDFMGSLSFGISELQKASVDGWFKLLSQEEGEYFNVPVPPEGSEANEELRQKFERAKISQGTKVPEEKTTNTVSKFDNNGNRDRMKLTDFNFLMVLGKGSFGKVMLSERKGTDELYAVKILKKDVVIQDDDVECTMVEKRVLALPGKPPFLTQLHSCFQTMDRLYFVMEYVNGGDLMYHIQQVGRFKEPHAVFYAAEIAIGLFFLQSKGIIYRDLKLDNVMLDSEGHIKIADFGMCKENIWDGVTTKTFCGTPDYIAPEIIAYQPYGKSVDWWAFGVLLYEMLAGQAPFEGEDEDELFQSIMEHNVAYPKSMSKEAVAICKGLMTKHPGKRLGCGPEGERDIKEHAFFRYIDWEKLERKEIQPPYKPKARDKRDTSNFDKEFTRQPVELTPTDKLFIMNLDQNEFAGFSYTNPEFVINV

[25] = molecular target: Glycogen synthase kinase-3 beta (Homo sapiens) (UniProt P49841); experiment: Inhibition of GSK3beta phosphorylation in human Gemcitabine-resistant PANC-1 cells at 160 nM incubated for 24 hrs by phospho-kinase array analysis; assay type: cell-based
Glycogen synthase kinase-3 beta (Homo sapiens), sequence (P49841 whole entry, looked up): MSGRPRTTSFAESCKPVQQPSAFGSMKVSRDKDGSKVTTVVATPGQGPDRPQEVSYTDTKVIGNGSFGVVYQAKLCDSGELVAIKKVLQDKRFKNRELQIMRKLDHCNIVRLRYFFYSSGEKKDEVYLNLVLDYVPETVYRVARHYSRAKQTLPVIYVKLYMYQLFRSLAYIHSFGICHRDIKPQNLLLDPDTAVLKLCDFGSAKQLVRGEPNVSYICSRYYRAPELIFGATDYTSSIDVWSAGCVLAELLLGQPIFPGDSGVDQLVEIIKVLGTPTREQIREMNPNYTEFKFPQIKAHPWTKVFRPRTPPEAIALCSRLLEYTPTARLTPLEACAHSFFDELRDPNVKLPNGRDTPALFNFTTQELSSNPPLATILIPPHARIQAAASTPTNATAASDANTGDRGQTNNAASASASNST

[26] = system: Gemcitabine-resistant PANC-1; experiment: Cell cycle distribution in human Gemcitabine-resistant PANC-1 cells assessed as G0-G1 phase cells at 160 nM incubated for 24 hrs by RNase/PI staining based flow cytometric analysis (reference value: 45.21 %); assay type: functional
[27] = Toxicity in male BALB/c nude mouse xenografted with human Gemcitabine-resistant PANC-1 cells assessed as body weight change at 10 mg/kg, ip administered three times in a week for 20 days; assay type: organism-based; conditions: in vivo, 480 h, time 20 day
[28] = molecular target: Proline-rich AKT1 substrate 1 (Homo sapiens) (UniProt Q96B36); experiment: Inhibition of PRAS40 phosphorylation in human Gemcitabine-resistant PANC-1 cells at 160 nM incubated for 24 hrs by phospho-kinase array analysis; assay type: cell-based
[29] = system: Gemcitabine-resistant PANC-1; experiment: Cell cycle distribution in human Gemcitabine-resistant PANC-1 cells assessed as G0-G1 phase cells at 80 nM incubated for 24 hrs by RNase/PI staining based flow cytometric analysis (reference value: 45.21 %); assay type: functional
[30] = system: Gemcitabine-resistant PANC-1; experiment: Inhibition of p70S6K phosphorylation in human Gemcitabine-resistant PANC-1 cells at 160 nM incubated for 24 hrs by phospho-kinase array analysis; assay type: cell-based
[31] = system: Gemcitabine-resistant PANC-1; experiment: In vivo inhibition of PKCbeta1 in male BALB/c nude mouse xenografted with human Gemcitabine-resistant PANC-1 cells assessed as reduction in PKCbeta1 expression in tumor at 10 mg/kg, ip administered three times in a week for 20 days by Western blot analysis; assay type: functional, organism-based; conditions: time 20.0 day
[32] = system: Gemcitabine-resistant PANC-1; experiment: Effect on STAT5 expression in human Gemcitabine-resistant PANC-1 cells at 40 to 160 nM by Western blot analysis; assay type: functional, cell-based; conditions: dose 40-160 nM
[33] = system: Gemcitabine-resistant PANC-1; experiment: Downregulation of p-GSK3beta expression in human Gemcitabine-resistant PANC-1 cells at 40 to 160 nM incubated for 24 hrs by Western blotting; assay type: functional, cell-based; conditions: dose 40-160 nM
[34] = system: Gemcitabine-resistant PANC-1; experiment: Downregulation of p-STAT5 expression in human Gemcitabine-resistant PANC-1 cells at 40 to 160 nM incubated for 24 hrs by Western blotting; assay type: functional, cell-based; conditions: dose 40-160 nM
[35] = system: Gemcitabine-resistant PANC-1; experiment: Induction of apoptosis in human Gemcitabine-resistant PANC-1 cells assessed as total cell death at 80 nM incubated for 48 hrs by Annexin V-FITC/PI staining based flow cytometric analysis relative to control; assay type: functional

CC(=O)Oc1ccc2[nH]c3c(c2c1)CCN1C(=O)c2ccccc2N(C)[C@H]31
Activity [1]: 0.34%
Activity [2]: 1.31%
Activity [3]: Active
Activity [4]: inactive
Activity [5]: Non-Toxic
IC50 at 72 h [6]: 2.95 µM
IC50 (PANC-1 [7]): ≤ 0.08 µM
Activity [8]: 14.05%
Activity [9]: 44.89%
Activity [10]: inactive
Activity [11]: Active
Activity [12]: 58.51%
Activity [13]: Active
Activity [14]: Active
Activity [15]: inactive
Activity [16]: Active
Activity [17]: 39.38%
Activity [18]: 42.91%
inhibition [19]: Active
Activity [20]: Active
Activity [21]: Non-Toxic
Activity (PANC-1 [22]): inactive
Activity [23]: inactive
inhibition [24]: Dose-Dependent Effect
inhibition [25]: Active
Activity [26]: 26.28%
Activity [27]: Non-Toxic
inhibition [28]: Active
Activity [29]: 34.14%
inhibition [30]: Active
inhibition [31]: Active
Activity [32]: inactive
Activity [33]: Active
Activity [34]: Active
Activity [35]: 20.63%
